In ChEMBL document CHEMBL1201862, “PubChem BioAssay data set” (2004):
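These data come from cells grown in 96-well plates and exposed to compound for 48 hours at five concentrations. GI50 = concentration required for 50% inhibition of growth.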 Activity calls are given as the source filed them. Cut-off read from the data, not from the text of the source: active = GI50 up to about 1.1 µM and inactive = higher.

How the values were obtained:
Test in all cases: growth of human tumour cells (NCI), 48 h
OVCAR-3 = system: OVCAR-3
HCT-116 = system: HCT-116
A549 = system: A549
MDA-N = system: MDA-N
SN12C = system: SN12C
786-0 = system: 786-0
SK-MEL-5 = system: SK-MEL-5
HCC 2998 = system: HCC 2998
CCRF-CEM = system: CCRF-CEM
MDA-MB-231 = system: MDA-MB-231
SK-OV-3 = system: SK-OV-3
COLO 205 = system: COLO 205
IGROV-1 = system: IGROV-1
MDA-MB-435 = system: MDA-MB-435
K562 = system: K562
UACC-62 = system: UACC-62
RXF 393 = system: RXF 393
HOP-92 = system: HOP-92
M14 = system: M14
NCI-H226 = system: NCI-H226

SMILES	GI50 (OVCAR-3)	GI50 (HCT-116)	GI50 (A549)	GI50 (MDA-N)	GI50 (SN12C)	GI50 (786-0)	GI50 (SK-MEL-5)	GI50 (HCC 2998)	GI50 (CCRF-CEM)	GI50 (MDA-MB-231)	GI50 (SK-OV-3)	GI50 (COLO 205)	GI50 (IGROV-1)	GI50 (MDA-MB-435)	GI50 (K562)	GI50 (UACC-62)	GI50 (RXF 393)	GI50 (HOP-92)	GI50 (M14)	GI50 (NCI-H226)
N=C(N)NCCCC(NCc1c2ccccc2nc2ccccc12)C(=O)O (stereo not given)	40.9 µM (inactive)	11.4 µM (inactive)	37.2 µM (inactive)	37.2 µM (inactive)	39.2 µM (inactive)	31.3 µM (inactive)	> 41.8 µM (inactive)	33.5 µM (inactive)	9.55 µM (inactive)	23.8 µM (inactive)	53.1 µM (inactive)	37.9 µM (inactive)	34.7 µM (inactive)	41.8 µM (inactive)	10.1 µM (inactive)	31.3 µM (inactive)	57 µM (inactive)	7.93 µM (inactive)	48.1 µM (inactive)	> 81.8 µM (inactive)
COc1ccc2nc3c4c(nccc4c2c1)-c1ncccc1C3=O	0.005 µM (active)	0.0124 µM (active)	0.113 µM (active)	0.0631 µM (active)	0.0508 µM (active)	0.0246 µM (active)	0.0282 µM (active)	0.209 µM (active)	0.818 µM (active)	0.494 µM (active)	0.0586 µM (active)	0.604 µM (active)	0.0294 µM (active)	0.0427 µM (active)	0.016 µM (active)	0.048 µM (active)	0.119 µM (active)	0.092 µM (active)	0.0118 µM (active)	0.0622 µM (active)
CC(C)CCCCCCCCCCCCC(=O)NCC(=O)NC1C(C)OC(Nc2[nH]cnc3ncnc2-3)C(O)C1O (stereo not given)	0.000173 µM (active)	0.000244 µM (active)	0.00128 µM (active)	< 0.01 µM (active)	0.00214 µM (active)	0.000491 µM (active)	0.00289 µM (active)	0.000331 µM (active)	0.0048 µM (active)	< 0.01 µM (active)	< 0.01 µM (active)	0.000622 µM (active)	0.000782 µM (active)	0.00571 µM (active)	0.00644 µM (active)	< 0.01 µM (active)	< 0.01 µM (active)	0.00028 µM (active)	0.000487 µM (active)	0.0024 µM (active)
COC(=O)C1=C(O)CCCC(C2CCCCC(=O)C2C(=O)OC)=C1 (stereo not given)	> 100 µM (inactive)	36.1 µM (inactive)	44.3 µM (inactive)	> 100 µM (inactive)	38.2 µM (inactive)	37.8 µM (inactive)	62.4 µM (inactive)	33.5 µM (inactive)	20.8 µM (inactive)	46.5 µM (inactive)	76.7 µM (inactive)	83.4 µM (inactive)	36.8 µM (inactive)	> 100 µM (inactive)	64.3 µM (inactive)	19.4 µM (inactive)	90.2 µM (inactive)	28.5 µM (inactive)	> 100 µM (inactive)	27.9 µM (inactive)
COC(=O)CC1(O)C(C=C(C)C)C(C(=O)OC)C(=O)C(C(=O)OC)C1C(=O)OC (stereo not given)	> 100 µM (inactive)	> 100 µM (inactive)	> 100 µM (inactive)	> 100 µM (inactive)	> 100 µM (inactive)	> 100 µM (inactive)	> 100 µM (inactive)	> 100 µM (inactive)	> 100 µM (inactive)	> 100 µM (inactive)	> 100 µM (inactive)	> 100 µM (inactive)	> 100 µM (inactive)	> 100 µM (inactive)	> 100 µM (inactive)	> 100 µM (inactive)	> 100 µM (inactive)	> 100 µM (inactive)	> 100 µM (inactive)	> 100 µM (inactive)
c1ccc2c(c1)CC1c3[nH]c4ccccc4c3CCN21 (stereo not given)	> 10 µM (inactive)	> 10 µM (inactive)	> 10 µM (inactive)	> 10 µM (inactive)	> 10 µM (inactive)	> 10 µM (inactive)	> 10 µM (inactive)	> 10 µM (inactive)	> 10 µM (inactive)	> 10 µM (inactive)	> 10 µM (inactive)	> 10 µM (inactive)	> 10 µM (inactive)	> 10 µM (inactive)	> 10 µM (inactive)	> 10 µM (inactive)	> 10 µM (inactive)	> 10 µM (inactive)	> 10 µM (inactive)	> 10 µM (inactive)
CC[C@@H]1CC[C@@H]2[C@H](CC[C@]3(C)[C@@H](O)CC[C@@H]23)[C@H]1CO	> 100 µM (inactive)	95.7 µM (inactive)	> 100 µM (inactive)	> 100 µM (inactive)	> 100 µM (inactive)	> 100 µM (inactive)	31.3 µM (inactive)	> 100 µM (inactive)	> 100 µM (inactive)	> 100 µM (inactive)	> 100 µM (inactive)	79.8 µM (inactive)	> 100 µM (inactive)	66.1 µM (inactive)	51.1 µM (inactive)	79.8 µM (inactive)	> 100 µM (inactive)	> 100 µM (inactive)	> 100 µM (inactive)	> 100 µM (inactive)
Nc1nc(Cl)cc(NCC2(CO)CCC(Cc3ccccc3)C2)n1 (stereo not given)	43.1 µM (inactive)	15.5 µM (inactive)	16.3 µM (inactive)	23.1 µM (inactive)	52.7 µM (inactive)	27.7 µM (inactive)	0.671 µM (active)	25.8 µM (inactive)	6.68 µM (inactive)	33 µM (inactive)	36 µM (inactive)	12.8 µM (inactive)	26.5 µM (inactive)	7.73 µM (inactive)	1.21 µM (inactive)	11.9 µM (inactive)	28.5 µM (inactive)	20.6 µM (inactive)	18.7 µM (inactive)	22.3 µM (inactive)
O=C1NN=C2C=C(c3ccc(Cl)cc3)CC(c3cccc(Br)c3)C12 (stereo not given)	42.1 µM (inactive)	64.9 µM (inactive)	37.4 µM (inactive)	> 100 µM (inactive)	> 100 µM (inactive)	> 100 µM (inactive)	> 100 µM (inactive)	38.7 µM (inactive)	22 µM (inactive)	30.4 µM (inactive)	> 100 µM (inactive)	> 100 µM (inactive)	51.3 µM (inactive)	77.1 µM (inactive)	32.9 µM (inactive)	87.3 µM (inactive)	62.8 µM (inactive)	2.74 µM (inactive)	> 100 µM (inactive)	73.6 µM (inactive)
O=c1oc2ccc([N+](=O)[O-])cc2c(Nc2ccc3c(c2)Oc2ccccc2O3)c1[N+](=O)[O-]	47.3 µM (inactive)	29 µM (inactive)	32.1 µM (inactive)	36.2 µM (inactive)	32.3 µM (inactive)	23.4 µM (inactive)	29.1 µM (inactive)	27.7 µM (inactive)	30.1 µM (inactive)	19.1 µM (inactive)	41.4 µM (inactive)	21.7 µM (inactive)	28.6 µM (inactive)	37.1 µM (inactive)	30 µM (inactive)	25.6 µM (inactive)	56 µM (inactive)	19.2 µM (inactive)	30.1 µM (inactive)	32.4 µM (inactive)
COc1ccc(/C=N/NS(=O)(=O)c2ccc(/C=C3\NC(=O)N(C)C3=O)cc2)cc1	40.6 µM (inactive)	> 100 µM (inactive)	> 100 µM (inactive)	> 100 µM (inactive)	> 100 µM (inactive)	> 100 µM (inactive)	> 100 µM (inactive)	> 100 µM (inactive)	78.3 µM (inactive)	38.8 µM (inactive)	> 100 µM (inactive)	> 100 µM (inactive)	43.6 µM (inactive)	> 100 µM (inactive)	> 100 µM (inactive)	98.9 µM (inactive)	38.6 µM (inactive)	58.7 µM (inactive)	> 100 µM (inactive)	> 100 µM (inactive)
O=P1(Cc2ccccc2)c2ccccc2-c2ccccc21	1.06 µM (active)	2.86 µM (inactive)	8.81 µM (inactive)	1.22 µM (inactive)	14.2 µM (inactive)	7.94 µM (inactive)	1.46 µM (inactive)	1.51 µM (inactive)	6.04 µM (inactive)	20.7 µM (inactive)	15.7 µM (inactive)	2.63 µM (inactive)	2.33 µM (inactive)	0.764 µM (active)	1.41 µM (inactive)	1.96 µM (inactive)	9.42 µM (inactive)	0.376 µM (active)	3.67 µM (inactive)	5.77 µM (inactive)
c1cc2cc3c4c5c(cc6ccc7cc8cc9c%10c8c8c7c6c5c8c5c%10c(c1C9N1CCOCCOCCOCCOCCOCC1)c2c45)C3 (stereo not given)	> 100 µM (inactive)	> 100 µM (inactive)	> 100 µM (inactive)	> 100 µM (inactive)	> 100 µM (inactive)	> 100 µM (inactive)	78.9 µM (inactive)	> 100 µM (inactive)	> 100 µM (inactive)	> 100 µM (inactive)	> 100 µM (inactive)	> 100 µM (inactive)	> 100 µM (inactive)	> 100 µM (inactive)	> 100 µM (inactive)	> 100 µM (inactive)	> 100 µM (inactive)	> 100 µM (inactive)	> 100 µM (inactive)	> 100 µM (inactive)
CCCCCCCC(CC(=O)NC(CO)C(=O)NC(CO)CC(C)C)OC(=O)CC(CCCCCCC)OC(=O)CC(CCCCCCC)OC1OC(C)C(O)C(OC2OC(C)C(OC(C)=O)C(O)C2O)C1O (stereo not given)	11.8 µM (inactive)	4.84 µM (inactive)	11.2 µM (inactive)	3.4 µM (inactive)	6.49 µM (inactive)	5.6 µM (inactive)	10 µM (inactive)	5.05 µM (inactive)	3.7 µM (inactive)	7.91 µM (inactive)	16.3 µM (inactive)	2.52 µM (inactive)	10.7 µM (inactive)	6.53 µM (inactive)	4.61 µM (inactive)	6.34 µM (inactive)	3.76 µM (inactive)	8.91 µM (inactive)	3.67 µM (inactive)	16.6 µM (inactive)
